The subject of assay [1] is Colletotrichum lindemuthianum. As to the kind of experiment: Colletotrichum lindemuthianum in vitro cell test. It counts as cell-based. As to conditions: 144 h, 20 ppm of active ingredient, 6 days incubation, read-out: efficacy (inhibition of fungal growth). The method, then: • Solvent: DMSO • Culture medium: 14.6 g anhydrous D-glucose (VWR), 7.1 g Mycological Peptone (Oxoid), 1.4 g granulated Yeast Extract (Merck), QSP 1 liter • Inoculum: spores suspension
Fungicides were solubilized in DMSO and the solution used to prepare the required range of concentrations. The final concentration of DMSO used in the assay was ≤[…]1%.
A spore suspension of C. lindemuthianum was prepared and diluted to the desired spore density.
Fungicides were evaluated for their ability to inhibit spores germination and mycelium growth in liquid culture assay. The compounds were added in the desired concentration to the culture medium with spores. After 6 days incubation, fungi-toxicity of compounds was determined by spectrometric measurement of mycelium growth. Inhibition of fungal growth was determined by comparing the absorbance values in wells containing the fungicides with the absorbance in control wells without fungicides.

The test system of assay [2] is Pseudomonas syringae pv. tomato. Description: In vivo preventive test on Pseudomonas syringae pv. tomato (bacterial speck on tomato). As to conditions: evaluated 5 or 6 days after inoculation, read-out: efficacy; for pest or weed control at 500 ppm: 500 ppm of active ingredient; for pest or weed control at 31 ppm: 31 ppm of active ingredient. In short, it runs like this: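 Young tomato plants sprayed with compound in acetone/DMSO/Tween diluted in water; solvent-only controls. Inoculated 72 h later by spraying leaves with bacterial suspension; 4 days saturated atmosphere then 1–2 days at 70–80% RH, 22 °C day/20 °C night. Efficacy scored 5–6 days post-inoculation, 0% = control, 100% = no disease.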

Assay [3] deals with Colletotrichum lindemuthianum. As to the kind of experiment: In vivo preventive test on Colletotrichum lindemuthianum (Antrachnose on bean). As to conditions: 144 h, inoculation 72 h after spraying, evaluated 6 days after inoculation, read-out: efficacy; for pest or weed control at 500 ppm: 500 ppm of active ingredient; for pest or weed control at 31 ppm: 31 ppm of active ingredient. The essentials: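 Young bean plants sprayed preventively with compound in acetone/DMSO/Tween diluted in water, then spore-inoculated 72 h later. Incubation 24 h at 20° C./100% RH, then 5 days at 20° C./90% RH; scored 6 days post-inoculation as % efficacy (0% = solvent-treated control, 100% = no disease).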

One may read the inhibition as the relative decrease from the control value, in per cent. On to `COC(=O)[C@H](CCCNC(=N)N)NC(=O)c1sc(Cl)c(Cl)c1Cl` [I.008], for which the inhibition at 20 ppm in assay [1] is at most 30%. Besides, the pest or weed control at 500 ppm in assay [2] fell in the range of 70 to 79%.

Regarding `CCOC(=O)C(C#N)NC(=O)c1sc(Cl)c(Cl)c1Cl` (stereo not shown) [I.009], the inhibition at 20 ppm in assay [1] is at most 30%. Also, the pest or weed control at 500 ppm in assay [3] and in assay [2] was 90 to 100% throughout.

Turning to `COC(=O)C(Cc1c[nH]cn1)NC(=O)c1sc(Cl)c(Cl)c1Cl` (stereo not shown) [I.012], the inhibition at 20 ppm in assay [1] was at most 30%. Moreover, the pest or weed control at 500 ppm in assay [3] lay in the range of 90 to 100%. The pest or weed control at 31 ppm in assay [2] is at least 70%.

With `COC(=O)[C@H](CC(N)=O)NC(=O)c1sc(Cl)c(Cl)c1Cl` [I.015], the inhibition at 20 ppm in assay [1] was at most 30%. In addition, the pest or weed control at 31 ppm in assay [2] lay within 80 to 89%.

For the compound `COC(=O)C(CC(F)F)NC(=O)c1sc(Cl)c(Cl)c1Cl` (stereo not shown) [I.016], the inhibition at 20 ppm in assay [1] is at most 30%. The values for the pest or weed control at 31 ppm in assay [3] and in assay [2] were 80 to 89% and 70 to 79%, respectively. The pest or weed control at 500 ppm in assay [3] and in assay [2] was 90 to 100% throughout.

For `O=C(O)CNC(=S)c1sc(Cl)c(Cl)c1Cl` [I.022, N-[(3,4,5-trichloro-2-thienyl)carbonothioyl]glycine], the inhibition at 20 ppm in assay [1] is at most 30%. The pest or weed control at 31 ppm in assay [3] lay in the range of 70 to 79%. Moreover, the pest or weed control at 500 ppm in assay [3] and in assay [2] was 90 to 100% throughout.

On to `COC(=O)CNC(=S)c1sc(Cl)c(Cl)c1Cl` [I.038, methyl N-[(3,4,5-trichloro-2-thienyl)carbonothioyl]glycinate], for which the inhibition at 20 ppm in assay [1] is at most 30%. For the same compound, in assay [3], the pest or weed control at 31 ppm was 90 to 100%. Further, the values for the pest or weed control at 500 ppm in assay [3] and in assay [2] were 90 to 100% and 70 to 79%, respectively.

As for `CCOC(=O)C(CC(N)=O)NC(=O)c1sc(Cl)c(Cl)c1Cl` (stereo not shown) [I.046], the inhibition at 20 ppm in assay [1] is at most 30%. Further, in assay [3], the pest or weed control at 31 ppm was in the range of 80 to 89% and the pest or weed control at 500 ppm was 90 to 100%.

Consider `CCOC(=O)C(CC(F)(F)F)NC(=O)c1sc(Cl)c(Cl)c1Cl` (stereo not shown) [I.048], for which the inhibition at 20 ppm in assay [1] is at most 30%. Further, the values for the pest or weed control at 500 ppm in assay [3] and in assay [2] were 80 to 89% and 70 to 79%, respectively.

Take `C[C@H](NC(=S)c1sc(Cl)c(Cl)c1Cl)C(=O)O` [I.113]: the inhibition at 20 ppm in assay [1] was at most 30%. Moreover, the pest or weed control at 500 ppm in assay [3] is 90 to 100%.

As for `C[C@H](NC(=O)c1sc(Cl)c(Cl)c1Cl)C(N)=O` [I.119], in assay [1], the inhibition at 20 ppm is at most 30%. Also, in assay [3], the pest or weed control at 31 ppm fell in the range of 70 to 79% and the pest or weed control at 500 ppm was 90 to 100%. In addition, in assay [2], the pest or weed control at 31 ppm lay within 70 to 79% and the pest or weed control at 500 ppm was in the range of 90 to 100%.

Consider `COC(=O)[C@H](CSC(=O)N(C)C)NC(=O)c1sc(Cl)c(Cl)c1Cl` [I.142], for which the pest or weed control at 31 ppm was 80 to 89% in assay [3] and 70 to 79% in assay [2].

Turning to `CCOC(=O)C(CSC)NC(=O)c1sc(Cl)c(Cl)c1Cl` (stereo not shown) [I.143], the inhibition at 20 ppm in assay [1] is at most 30%. Further, the results for the pest or weed control at 31 ppm in assay [3] and in assay [2] were 70 to 79% and 90 to 100%, respectively.

As to `COC(=O)C[C@H](NC(=O)c1sc(Cl)c(Cl)c1Cl)C(=O)OC` [I.144], the pest or weed control at 31 ppm in assay [3] and in assay [2] was 80 to 89% throughout.

These data come from patent US20230055705A1, “SUBSTITUTED THIOPHENE CARBOXAMIDES AND DERIVATIVES THEREOF” (Bayer Aktiengesellschaft, priority 2019, published 2023).
